From patent US8742068B2, “Treatment and prevention of inflammatory diseases and autoimmune diseases” (Universiteit Utrecht Holding B.V., priority 2007, dated 2014)
“Also recorded” adds a separate entry of the source.

Tests used:
[1] = system: synovial fluid mononuclear cells (SFMC); experiment: Peptide-specific response of SFMC (intracellular staining and FACS); format: cell-based, human; conditions: eight days culture with peptide, 6 hour restimulation
Method: Peptide-specific response of SFMC was measured by intracellular staining and FACS analysis. Therefore, cells were cultured in the presence of the peptide as described for PBMC. After 96 hours 100 μl of the medium was replaced by fresh culture medium and 40 IU/ml IL-2 was added. At day eight, cells were spun down, medium was aspirated and 200 μl new medium with fresh irradiated APC of the same donor was added (7.5*10^5 irradiated at 3500 rad) During 6 hours cells were cultured with or without the peptides and addition of the costimulatory mAbs CD28 and CD49 (0.5 μg/ml each) at 37° C. In the last 4 hours Golgistop (BD Biosciences) was added. Harvested cells were washed and surface stained as described previously […] with anti-CD3-Peridinin-chlorophyll-protein Complex (PerCP), anti-CD4-allophycocyanin (APC) and anti-CD69-fluorescein isothiocyanate (FITC) and subsequently fixed in Cytofix/cytoperm solution (BD Biosciences) followed by intracellular staining with phycoerythrin (PE) conjugated mAbs against either IL-10, IFNγ or TNFα. All antibodies were obtained from Becton Dickinson. Data are expressed as % positive cells of the CD3^+CD4^+ population.

[2] = system: PBMC isolated from the blood of healthy donors; experiment: Peptide-specific proliferation of human PBMC; format: cell-based; conditions: peptides at 20 μg/ml for 96 hours; compared to A5 control peptide
Excerpt: Peptide specific responses were studied in mononuclear cells obtained from the blood of healthy controls or the synovial fluid of a JIA and a RA patient. The patients were visiting the outpatient clinic of the departments of Rheumatology & Clinical Immunology and Pediatrics of the University Medical Center Utrecht (Utrecht, The Netherlands). The RA patient fulfilled diagnostic criteria of the American College of Rheumatology criteria for RA […]. Cells were isolated by ficoll (Pharmacia, Uppsala, Sweden) density gradient centrifugation of heparinized blood or synovial fluid and cultured in RPMI 1640 supplemented with 2 mmol/L glutamine, 100 U/ml penicillin and streptomycin (Gibco BRL, Gaithersburg, Md. USA) and 10% AB-positive heat-inactivated human serum (Sanquin Blood Bank, Utrecht, the Netherlands) in 96 wells round bottom plates (Nunc, Roskilde, Denmark) at 2*10^5 cells in 200 μl per well. Cultures were in triplicate stimulated with peptides at 20 μg/ml for 96 hours at 37° C. in 5% CO2 with 100% relative humidity. For determination of peptide-specific proliferation of PBMC, during the last 16 hours 1 μC1 (37 kBq) [^3H]-thymidine was added to each well and incorporation was measured. Data are expressed as stimulation index calculated as mean CPM of cells cultured with peptide divided by mean CPM of cells cultured without peptide.

[3] = system: arthritis; conditions: cited from earlier work
[4] = system: adjuvant arthritis; conditions: in vivo; cited from earlier work
[5] = system: proteoglycan induced arthritis; experiment: Proteoglycan induced arthritis (PGIA), intranasal pre-treatment; format: in vivo, Balb/c mice; conditions: control pOva
Excerpt: The proteoglycan induced arthritis model (PGIA) is a murine model of rheumatoid arthritis and is described to be a T-cell dependent and antibody mediated model. In the model arthritis is induced by two times injection of human proteoglycan (hPG) in a synthetic adjuvant dimethyldioctadecylammonium (DDA), see Hanyecz A. et al., Achievement of a synergistic adjuvant effect on arthritis induction by activation of innate immunity and forcing the immune response toward the Th1 phenotype. Arthritis Rheum. 2004 50(5):1665-76.
Because arthritis is induced by immunization with a synthetic adjuvant, instead of complete Freund's adjuvant (CFA), the role of interfering immune responses, induced by microbial Hsp's present in CFA, can be excluded. Due to cross reactive responses, between the human and the mouse (self) PG, a chronic and relapsing arthritis develops. After disease development, arthritis severity is scored by clinical assessment of thickness, redness and deformation of the joints on a scale of 1-4 per paw.
Ten female Balb/c mice, retired breeders obtained from Charles River, were randomly divided in two groups. To evaluate the effect of intra nasal treatment with Mycobacterial HSP70 (SEQ ID NO: 55) on PGIA 30 μg Hsp70 in 10 μl PBS was administered on day −7, −5 and −3 before disease induction. PGIA was induced by two times i.p. injection with 400 μg hPG and 2 mg DDA in 200 μl PBS. Subsequently developed arthritis scores were assessed by clinical evaluation as described in Example 7.
Fifteen female Balb/c mice, retired breeders obtained from Charles River, were randomly divided in three groups (five mice per group). To evaluate the effect of intranasal treatment with Hsp70-derived peptides “B1” (SEQ ID NO: 1) and a mixture of C1 (SEQ ID NO: 3) and mC1a (SEQ ID NO: 4) (designated herein as “C1mix”) on PGIA 100 μg peptide in 10 μl PBS was administered on day −7, −5 and −3 before disease induction. Ovalbumin peptide 323-339 (pOva) was used as a control peptide. PGIA was induced by two times i.p. injection with 400 μg hPG and 2 mg DDA in 200 μl PBS. Subsequently developed arthritis scores were assessed by clinical evaluation.
Twelve female Balb/c mice, retired breeders obtained from Charles River, were randomly divided in two groups (six mice per group). To evaluate the effect of intra nasal treatment with Hsp70 derived mC1 a on PGIA 100 μg peptide in 10 μl PBS was administered on day −14, −11, −7 and −4 before disease induction. Ovalbumin peptide (pOva) was used as a control peptide. PGIA was induced by two times i.p. injection with 400 μg hPG and 2 mg DDA in 200 μl PBS. Subsequently developed arthritis scores were assessed by clinical evaluation.
Eighteen female Balb/c mice, retired breeders obtained from Charles River, were randomly divided in three groups (six mice per group). To evaluate the effect of intranasal (i.n.) treatment with Hsp70 derived peptides C1 and its mouse homologue mC1a on PGIA 100 μg peptide in 10 μl PBS was administered on day −7, −5 and −3 before disease induction (see FIG. 28). Ovalbumin peptide (pOva) was used as a control peptide. PGIA was induced by two times i.p. injection with 300 μg hPG and 2 mg DDA in 200 μl PBS. Subsequently developed arthritis scores were assessed by clinical evaluation. • Group A: (pOva): Treated with 100 μg pOva in 10 μl PBS intranasally • Group B (C1): Treated with 100 μg C1 in 10 μl PBS intranasally • Group C (mC1a): Treated with 100 μg mC1a in 10 μl PBS intranasally

[6] = system: primed spleen and draining lymph node cells; experiment: Peptide pool immunization, in vitro re-stimulation with individual peptides (T-cell proliferation, cytokine production, cross reactivity); format: cell-based, Balb/c mice
Excerpt: To define the epitopes more precisely, we divided the 13 peptides, based on the degree of sequence identity between bacterial and the homologous mouse Hsp70s, in three pools (pool A: non-conserved peptides, pool B: conserved peptides comprising at least about 80% amino acid identity to the mouse homologue, and pool C: highly conserved peptides comprising >86% amino acid identity to the mouse homologue, see below) and immunized 10-12 weeks old Balb/c mice twice with a 2 week interval (intraperitoneally and subcutaneously) with the peptide pools. 10 days after the second immunization primed spleen and draining lymph node cells were re-stimulated in vitro with all the 13 individual peptides after which we measured T-cell proliferation (tritium incorporation), IFNγ, IL10, IL4 and IL5 production (cytokine production).
Cross reactivity was determined with the corresponding mouse homologue peptides.

[7] = Example 11: 100 μg intranasally on day −7, −5 and −3

## VLRIINEPTAAAIAY (listed as Mus musculus) [mC1b, mouse hsp70 (hspa1a/hspa8) peptide, mouse homologue of C1]
[1]
  production of IL-10, IFNγ and TNFα in the CD3+CD4+ population: increased the production of IL-10, IFNγ and TNFα
  surface expression of CD69 in the CD3+CD4+ population: increased
[2]
  peptide-specific proliferation (stimulation index, [3H] thymidine incorporation): increased proliferation of PBMC; also recorded: significantly increased the proliferation

## peptide 111-125: synthetic 15-mer peptide of mycobacterial HSP70, amino acids 111-125 (Wendling et al. 2000) (ITDAVITTPAYFNDA; UniProt P9WMJ9 111-125, looked up, fragment)
[3]; nasal administration
  arthritis: significant reduction of arthritis
[3]; parenteral pre-immunization
  arthritis development: did not protect against arthritis development

## amino acids 84-103: another peptide of Mycobacterial HSP70, amino acids 84-103 (Tanaka et al. 1999) (KKYTAPEISARILMKLKRDA; UniProt P9WMJ9 84-103, looked up, fragment)
[4]
  development of adjuvant arthritis: does not suppress adjuvant arthritis development

## peptide 234-252: peptide 234-252 of Mycobacterial HSP70 (Tanaka et al. 1999) (LREAAEKAKIELSSSQSTS; UniProt P9WMJ9 234-252, looked up, fragment)
[4]
  IL-10 production: induces IL-10 production
  development of adjuvant arthritis: suppresses the development of adjuvant arthritis

## VLRVINEPTAAALAY (listed as Mus musculus) [mC1a, mouse Grp75 (hspa9a) peptide 216-230, mouse homologue of C1]
[5]; Example 10: 100 μg intranasally on day −14, −11, −7 and −4
  disease activity (arthritis score): suppressed disease activity
[5]; [7]
  disease activity (arthritis score): significant reduction of disease activity

## KPFQSVIADTGISVS (listed as Mycobacterium tuberculosis) [A1, pool A (not conserved)]
[6]
  Cross-reactivity of bacterially primed T-cells with mouse homologue peptide: no

## DEVVAVGAALQAGVL (listed as Mycobacterium tuberculosis) [B1, pool B (conserved)]
[6]
  Cross-reactivity of bacterially primed T-cells with mouse homologue peptide: induced cross reactive T cell responses and yes
[5]; Example 9: 100 μg intranasally on day −7, −5 and −3
  disease severity (arthritis score): reduction of disease severity

## VLRIVNEPTAAALAY (listed as Mycobacterium tuberculosis) [C1]
[1]
  production of IL-10, IFNγ and TNFα in the CD3+CD4+ population: increased CD69 and cytokine expression
  surface expression of CD69 in the CD3+CD4+ population: increased CD69 and cytokine expression
[6]
  Cross-reactivity of bacterially primed T-cells with mouse homologue peptide: induced cross reactive T cell responses and yes
[5]; [7]
  disease activity (arthritis score): significant reduction of disease activity
